Experimental findings from ChEMBL document CHEMBL3045351, “A 4-(o-methoxyphenyl)-2-aminothiazole: an anti-quorum sensing compound” (2013) are described below.

In brackets after ≈: the same amount, converted by molar mass. Activity calls are given as the source filed them. No cut-off for these calls is given here.

In experiment [1] the test system is Bacillus subtilis. The experiment is described as follows: Induction of ROS production in Bacillus subtilis NCIM 2063 assessed as morphological changes at MIC50 concentration after 3 hr by scanning electron microscopic analysis. Format: functional, organism-based.
The subject of experiment [2] is Pseudomonas aeruginosa. The experiment in a line: Bactericidal activity against Pseudomonas aeruginosa PAO1 after 18 hr by crystal violet staining method. It counts as functional, organism-based.
For experiment [3], the system named is Bacillus subtilis. The experiment is described as follows: Induction of ROS production in Bacillus subtilis NCIM 2063 at MIC50 concentration after 3 hr by DCFH-DA-based fluorimetric analysis. It counts as functional, organism-based.
Experiment [4] has as its system Pseudomonas aeruginosa. The experiment in a line: Antiquorum-sensing activity against Pseudomonas aeruginosa PAO1 cells assessed as decrease in biofilm formation at 25 to 100 ug/ml after 18 hr by crystal violet staining method. It counts as functional, organism-based.
The subject of experiment [5] is Pseudomonas aeruginosa. The experiment is described as follows: Antiquorum-sensing activity against Pseudomonas aeruginosa PAO1 cells assessed as scattered cells at 25 ug/ml after 18 hr by scanning electron microscopic analysis. Format: functional, organism-based.
Experiment [6] has as its system Bacillus subtilis. The experiment in a line: Antibacterial activity against Bacillus subtilis NCIM 2063 incubated for 12 hr followed by subculturing measured after 24 hr by colony counting method. Format: functional.
Experiment [7] relates to Bacillus subtilis. The experiment is described as follows: Antibacterial activity against Bacillus subtilis NCIM 2063 after 12 hr by resazurin reduction assay. It counts as functional. Conditions: NCIM 2063, 12 h. For orientation: The colour change of resazurin is a common sign of viable cells or microbes.
Experiment [8] relates to Escherichia coli. The experiment in a line: Antibacterial activity against Escherichia coli NCIM 2931 after 12 hr by resazurin reduction assay. It counts as functional. Conditions: NCIM 2931, 12 h.
Experiment [9] deals with Escherichia coli. The experiment is described as follows: Antibacterial activity against Escherichia coli NCIM 2931 incubated for 12 hr followed by subculturing measured after 24 hr by colony counting method. It counts as functional.

Take `COc1ccccc1-c1csc(N)n1`: the result with Bacillus subtilis [1] and with Bacillus subtilis [3] was inactive. Further, the outcome with Pseudomonas aeruginosa [2], in the experiment with Pseudomonas aeruginosa [4] and with Pseudomonas aeruginosa [5] was Active. The values for the MBC in the experiment on Bacillus subtilis [6] and in the experiment with Escherichia coli [9] were 250 µg/mL (≈ 1210 µM) and 500 µg/mL (≈ 2420 µM), respectively. Also, the minimum inhibitory concentration (MIC) was determined as 250 µg/mL (≈ 1210 µM) against Bacillus subtilis [7] and 500 µg/mL (≈ 2420 µM) in the experiment on Escherichia coli [8].

In general, MBC refers to the lowest tested concentration that kills the bacteria rather than only halting them. A low value points to more potent killing. For orientation: MIC means the lowest concentration found to suppress growth. Higher therefore signals a less susceptible organism.
